# Source: patent US20080103205A1, “Pesticidal compositions and methods of use” (priority 2006, published 2008)
# What was measured:
# [1] = test system: Meloidogyne incognita eggs; assay: M. incognita egg hatching; type: in vivo
# Experimental: Meloidogyne incognita (plant parasitic nematode) eggs were collected from tomato plant roots and were suspended in water. The solution was either diluted or concentrated to adjust the egg load to about 5000/ml. AT stock solutions prepared in DMSO and 300 ul of test solution was placed in a well, along with 20 ul of aqueous solution containing eggs. The number of eggs in 20 ul solution ranged from 115 to 143 (n=10). Each treatment (2, 5, 10, 20, or 40 ppm) was replicated 5 times. Microplates were sealed with Parafilm™ and incubated at room temperature. Similar tests conducted with 0.2% DMSO alone served as controls. Egg hatching was monitored at 24, 72, 120, and 168 hr after incubation. Both moving and non-moving nematodes were counted to arrive at the number of eggs hatched. Proportion of egg hatch was calculated as the number of juveniles divided by total number of eggs.
# VSCC blockers effect on M. incognita egg hatching is shown in the following tables where % hatched is rounded to the nearest percentage point and where “% C*” is % hatch, normalized to control.
# [2] = test system: European corn borer (Ostrinia nubilalis); assay: Diet surface test on European corn borer larvae (2nd instar); type: in vivo; details: for No. dead: 10 larvae
# Experimental: Concentrations of 6.25, 12.5, 25, or 50 ppm AT blocker were prepared in 95% ethyl alcohol (EtOH). 95% EtOH alone served as control. European corn borer (ECB) diet prepared from the powdered diet supplied by French Agricultural Research, Inc. Diet (1-2 ml) was poured into small cups and allowed to cool to room temperature. Test solution (100 ul) was placed onto the diet surface and allowed to evaporate the solvent. Each concentration of chemical had 2 sets of 10 cups each. One late 2nd instar larva was placed in each cup and covered with lid having perforations for aeration. Cups were placed in an incubator for 7 days at 25±1° C. and 70±5% RH. After seven days, the weight of each larva was taken and any mortality was recorded. Then, the surviving larvae were transferred to fresh diet cups holding sufficient diet (5-6 ml) without chemicals and incubated at 25±1° C. and 70±5% RH until pupation. Weights of larvae were taken 14 days after transferring to fresh diet (21 days after start of treatment). Finally, the number of days until pupation was recorded.
# Anion transporters caused larval death and a reduction in weight gain within 7 days exposure. The effect persisted for 2 weeks time on untreated diet, but total time to pupation was relatively unaffected.
structure (smiles),measurement,setting,value
"O=C(O)c1c2ccccc2cc2ccccc12 [9-AC, anthracene-9-carboxylic acid]",Eggs Hatched %,"[1]; 2 ppm, 24 hr",10%
same,"Eggs Hatched % C* (% hatch, normalized to control)","[1]; 2 ppm, 24 hr",100%
same,Eggs Hatched No.,"[1]; 2 ppm, 24 hr",65
same,Eggs Hatched %,"[1]; 2 ppm, 72 hr",15%
same,"Eggs Hatched % C* (% hatch, normalized to control)","[1]; 2 ppm, 72 hr",94%
same,Eggs Hatched No.,"[1]; 2 ppm, 72 hr",101
same,Eggs Hatched %,"[1]; 2 ppm, 120 hr",20%
same,"Eggs Hatched % C* (% hatch, normalized to control)","[1]; 2 ppm, 120 hr",91%
same,Eggs Hatched No.,"[1]; 2 ppm, 120 hr",134
same,Eggs Hatched %,"[1]; 2 ppm, 168 hr",25%
same,"Eggs Hatched % C* (% hatch, normalized to control)","[1]; 2 ppm, 168 hr",91%
same,Eggs Hatched No.,"[1]; 2 ppm, 168 hr",167
same,Eggs Hatched %,"[1]; 5 ppm, 24 hr",9%
same,"Eggs Hatched % C* (% hatch, normalized to control)","[1]; 5 ppm, 24 hr",90%
same,Eggs Hatched No.,"[1]; 5 ppm, 24 hr",67
same,Eggs Hatched %,"[1]; 5 ppm, 72 hr",14%
same,"Eggs Hatched % C* (% hatch, normalized to control)","[1]; 5 ppm, 72 hr",87%
same,Eggs Hatched No.,"[1]; 5 ppm, 72 hr",98
same,Eggs Hatched %,"[1]; 5 ppm, 120 hr",18%
same,"Eggs Hatched % C* (% hatch, normalized to control)","[1]; 5 ppm, 120 hr",82%
same,Eggs Hatched No.,"[1]; 5 ppm, 120 hr",129
same,Eggs Hatched %,"[1]; 5 ppm, 168 hr",22%
same,"Eggs Hatched % C* (% hatch, normalized to control)","[1]; 5 ppm, 168 hr",79%
same,Eggs Hatched No.,"[1]; 5 ppm, 168 hr",155
same,Eggs Hatched %,"[1]; 10 ppm, 24 hr",9%
same,"Eggs Hatched % C* (% hatch, normalized to control)","[1]; 10 ppm, 24 hr",90%
same,Eggs Hatched No.,"[1]; 10 ppm, 24 hr",62
same,Eggs Hatched %,"[1]; 10 ppm, 72 hr",13%
same,"Eggs Hatched % C* (% hatch, normalized to control)","[1]; 10 ppm, 72 hr",81%
same,Eggs Hatched No.,"[1]; 10 ppm, 72 hr",90
same,Eggs Hatched %,"[1]; 10 ppm, 120 hr",17%
same,"Eggs Hatched % C* (% hatch, normalized to control)","[1]; 10 ppm, 120 hr",77%
same,Eggs Hatched No.,"[1]; 10 ppm, 120 hr",118
same,Eggs Hatched %,"[1]; 10 ppm, 168 hr",20%
same,"Eggs Hatched % C* (% hatch, normalized to control)","[1]; 10 ppm, 168 hr",71%
same,Eggs Hatched No.,"[1]; 10 ppm, 168 hr",141
same,Eggs Hatched %,"[1]; 20 ppm, 24 hr",9%
same,"Eggs Hatched % C* (% hatch, normalized to control)","[1]; 20 ppm, 24 hr",90%
same,Eggs Hatched No.,"[1]; 20 ppm, 24 hr",59
same,Eggs Hatched %,"[1]; 20 ppm, 72 hr",12%
same,"Eggs Hatched % C* (% hatch, normalized to control)","[1]; 20 ppm, 72 hr",75%
same,Eggs Hatched No.,"[1]; 20 ppm, 72 hr",80
same,Eggs Hatched %,"[1]; 20 ppm, 120 hr",15%
same,"Eggs Hatched % C* (% hatch, normalized to control)","[1]; 20 ppm, 120 hr",68%
same,Eggs Hatched No.,"[1]; 20 ppm, 120 hr",102
same,Eggs Hatched %,"[1]; 20 ppm, 168 hr",18%
same,"Eggs Hatched % C* (% hatch, normalized to control)","[1]; 20 ppm, 168 hr",64%
same,Eggs Hatched No.,"[1]; 20 ppm, 168 hr",122
same,Eggs Hatched %,"[1]; 40 ppm, 24 hr",9%
same,"Eggs Hatched % C* (% hatch, normalized to control)","[1]; 40 ppm, 24 hr",90%
same,Eggs Hatched No.,"[1]; 40 ppm, 24 hr",60
same,Eggs Hatched %,"[1]; 40 ppm, 72 hr",12%
same,"Eggs Hatched % C* (% hatch, normalized to control)","[1]; 40 ppm, 72 hr",75%
same,Eggs Hatched No.,"[1]; 40 ppm, 72 hr",76
same,Eggs Hatched %,"[1]; 40 ppm, 120 hr",14%
same,"Eggs Hatched % C* (% hatch, normalized to control)","[1]; 40 ppm, 120 hr",64%
same,Eggs Hatched No.,"[1]; 40 ppm, 120 hr",94
same,Eggs Hatched %,"[1]; 40 ppm, 168 hr",15%
same,"Eggs Hatched % C* (% hatch, normalized to control)","[1]; 40 ppm, 168 hr",54%
same,Eggs Hatched No.,"[1]; 40 ppm, 168 hr",103
same,No. dead,"[2]; 6.25 ppm, 7 days after feeding",0
same,No. dead,"[2]; 6.25 ppm, 21 days after feeding",0
same,No. dead,"[2]; 12.5 ppm, 7 days after feeding",0
same,No. dead,"[2]; 12.5 ppm, 21 days after feeding",0
same,Days for pupation,[2]; 25 ppm,26.0 days
same,No. dead,"[2]; 25 ppm, 7 days after feeding",0
same,mortality at 6.25 ppm,"[2]; Ostrinia nubilalis, 168 h, 6.25 ppm, 7 days after feeding",0%
same,mortality at 12.5 ppm,"[2]; Ostrinia nubilalis, 168 h, 12.5 ppm, 7 days after feeding",0%
same,mortality at 25 ppm,"[2]; Ostrinia nubilalis, 168 h, 25 ppm, 7 days after feeding",0%
same,mortality at 6.25 ppm,"[2]; Ostrinia nubilalis, 504 h, 6.25 ppm, 21 days after feeding",0%
same,mortality at 12.5 ppm,"[2]; Ostrinia nubilalis, 504 h, 12.5 ppm, 21 days after feeding",0%
same,mortality at 50 ppm,"[2]; Ostrinia nubilalis, 504 h, 50 ppm, 21 days after feeding",60%
